Test results from patent publication US11840686B2, “Modulation of prekallikrein (PKK) expression” (Ionis Pharmaceuticals, Inc., priority 2013, dated 2023).
Strand notation (5' to 3'): a small letter for the sugar, then the base; units joined by * are phosphorothioate-linked, units joined directly phosphodiester-linked; [ ] holds rarer units or linkages, { } end groups; capitals alone tell only the bases. e = 2'-O-(2-methoxyethyl) (MOE); [5mC] = 5-methylcytosine; d = 2'-deoxy (DNA)

Tested on: human PKK mRNA
Assay: Antisense inhibition of human PKK mRNA in HepaRG cells, 5,000 nM (Example 2)
Format: cell-based
How it was run: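 qRT-PCR (RTS3454) read-out, RIBOGREEN-normalized; % inhibition vs untreated cells. HepaRG, 20,000 cells/well, electroporation, 5,000 nM ASO, ~24 h.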

[1] = HepaRG cells, 5,000 nM antisense oligonucleotide, 5-10-5 gapmers, Table 16
[2] = Table 13, human PKK mRNA in HepaRG cells, 5-10-5 gapmers
[3] = HepaRG cells, electroporation with 5,000 nM antisense oligonucleotide, approximately 24 hours, PKK mRNA by RT-PCR (RTS3454), relative to untreated control cells, Table 6 experiment
[4] = HepaRG cells, 5,000 nM antisense oligonucleotide, 5-10-5 gapmers, Table 17
[5] = HepaRG cells, electroporation, 5,000 nM antisense oligonucleotide, approx. 24 hours, primer probe set RTS3454, relative to untreated control cells, Table 12
[6] = human PKK mRNA, HepaRG cells, 5,000 nM antisense oligonucleotide, Table 18
[7] = Table 9 experiment, HepaRG cells, 20,000 cells per well, electroporation with 5,000 nM antisense oligonucleotide, approx. 24 hours, PKK mRNA by RT-PCR (RTS3454), relative to untreated control cells
[8] = Table 10 experiment, HepaRG cells, 20,000 cells per well, electroporation with 5,000 nM antisense oligonucleotide, approx. 24 hours, PKK mRNA by RT-PCR (RTS3454), relative to untreated control cells
[9] = Table 8, HepaRG cells, electroporation with 5,000 nM antisense oligonucleotide, approx. 24 hours, PKK mRNA by RT-PCR (RTS3454), relative to untreated control cells
[10] = Table 7, HepaRG cells, electroporation with 5,000 nM antisense oligonucleotide, approx. 24 hours, PKK mRNA by RT-PCR (RTS3454), relative to untreated control cells
[11] = HepaRG cells, electroporation, 5,000 nM antisense oligonucleotide, approx. 24 hours, primer probe set RTS3454, relative to untreated control cells, Table 11
[12] = HepaRG cells, electroporation with 5,000 nM antisense oligonucleotide, approximately 24 hours, PKK mRNA by RT-PCR (RTS3454), relative to untreated control cells, Table 5 experiment

## 547705 (antisense eG*e[5mC]*eA*e[5mC]*e[5mC]*d[5mC]*dA*dA*dT*dA*d[5mC]*dA*dG*dG*dG*e[5mC]*e[5mC]*eA*eG*eG) [compound 547705]
[1]
  % inhibition: 69%

## 547563 (eG*eT*eG*eG*eG*dA*dT*d[5mC]*dA*dG*dA*dG*dA*dA*dT*eG*eA*e[5mC]*eT*eA; antisense) [compound 547563]
[2]
  % inhibition: 48%

## 547344 (antisense eG*eA*e[5mC]*eA*e[5mC]*dA*dT*dT*dA*dA*dA*dA*dT*dT*dG*eA*e[5mC]*eT*e[5mC]*e[5mC]) [compound 547344]
[3]
  % inhibition: 80%

## 547076 (eT*e[5mC]*eT*e[5mC]*eA*dA*dG*d[5mC]*dA*dG*d[5mC]*d[5mC]*dT*dA*dT*eT*eG*eT*eG*eT; antisense) [compound 547076]
[4]
  % inhibition: 14%

## 546497 (e[5mC]*eA*eT*eG*e[5mC]*dA*dT*dA*d[5mC]*dT*d[5mC]*dG*d[5mC]*d[5mC]*dT*eT*eT*eG*eT*eG; antisense) [compound 546497]
[5]
  % inhibition: 56%

## 548729 (DNA eG*eT*eA*e[5mC]*dT*dA*dG*dT*dT*dT*d[5mC]*d[5mC]*dT*dA*eT*eA*eA; antisense) [compound 548729]
[6]
  % inhibition: 13%

## 548778 (antisense eA*eT*eA*eA*d[5mC]*dA*dG*dT*dA*dT*d[5mC]*dA*d[5mC]*eT*eG*eT*eA) [compound 548778]
[6]
  % inhibition: 20%

## 547035 (eT*eG*eG*eT*e[5mC]*d[5mC]*d[5mC]*dA*dA*dA*dT*dT*dG*dG*dA*eG*eT*eG*e[5mC]*eA; antisense) [compound 547035]
[4]
  % inhibition: 40%

## 547482 (antisense e[5mC]*e[5mC]*e[5mC]*e[5mC]*eT*dT*d[5mC]*dT*dT*dT*dA*dT*dA*dG*d[5mC]*e[5mC]*eA*eG*e[5mC]*eA) [compound 547482]
[7]
  % inhibition: 90%
[8]
  % inhibition: 65%

## 548742 (DNA eA*e[5mC]*eT*eG*dT*dA*d[5mC]*dT*dA*dG*dT*dT*dT*e[5mC]*e[5mC]*eT*eA; antisense) [compound 548742]
[6]
  % inhibition: 50%

## 547421 (e[5mC]*eA*eT*e[5mC]*e[5mC]*dA*dT*dA*dG*dA*dT*dA*dA*dT*d[5mC]*eT*eT*eA*eA*eG; antisense) [compound 547421]
[9]
  % inhibition: 69%

## 547459 (antisense eG*eA*eG*eT*eT*dT*dT*dA*dT*d[5mC]*dA*dA*dG*dG*d[5mC]*eG*eA*eT*eA*eT) [compound 547459]
[7]
  % inhibition: 28%
[8]
  % inhibition: 51%

## 547409 (eA*eG*eT*e[5mC]*eA*d[5mC]*dA*dT*dT*d[5mC]*dA*dA*dT*dT*d[5mC]*eT*eT*e[5mC]*eT*e[5mC]; antisense) [compound 547409]
[10]
  % inhibition: 67%

## 546372 (antisense eG*eA*eA*eT*eT*dT*dG*dA*d[5mC]*dT*dT*dG*dA*dA*d[5mC]*eT*e[5mC]*eA*eG*eG) [compound 546372]
[11]
  % inhibition: 49%

## 546217 (antisense e[5mC]*eA*e[5mC]*eA*eA*dA*dA*dG*d[5mC]*dA*dT*d[5mC]*dT*dG*dG*eA*eG*eT*eG*eA) [compound 546217]
[10]
  % inhibition: 83%

## 548735 (DNA eA*eT*e[5mC]*eA*d[5mC]*dT*dG*dT*dA*d[5mC]*dT*dA*dG*dT*eT*eT*e[5mC]; antisense) [compound 548735]
[6]
  % inhibition: 48%

## 546979 (eA*e[5mC]*eT*eG*eT*dT*dG*dT*d[5mC]*d[5mC]*dA*dT*dA*dG*d[5mC]*eA*eG*e[5mC]*eA*eT; antisense) [compound 546979]
[1]
  % inhibition: 71%

## 547404 (eA*eG*eT*e[5mC]*eA*dA*d[5mC]*dT*d[5mC]*d[5mC]*d[5mC]*dG*dG*dG*dT*eA*eA*eA*eT*eT; antisense) [compound 547404]
[10]
  % inhibition: 64%

## 546599 (eA*eA*eG*eA*eG*dT*dA*dA*dG*d[5mC]*d[5mC]*dT*dT*d[5mC]*dA*e[5mC]*eA*eG*eG*eG; antisense) [compound 546599]
[4]
  % inhibition: 82%

## 546931 (eG*e[5mC]*e[5mC]*e[5mC]*e[5mC]*d[5mC]*dG*dG*dA*dG*d[5mC]*dA*d[5mC]*d[5mC]*dT*eT*e[5mC]*eA*e[5mC]*eT; antisense) [compound 546931]
[1]
  % inhibition: 58%

## 547347 (antisense eA*e[5mC]*eT*eG*e[5mC]*dT*dA*dA*d[5mC]*d[5mC]*dT*dT*dA*dG*dA*e[5mC]*eA*e[5mC]*eA*eT) [compound 547347]
[3]
  % inhibition: 82%

## 547302 (antisense e[5mC]*e[5mC]*eA*eT*eG*dT*d[5mC]*dA*dT*dT*dG*dA*dT*dT*dG*eA*eA*e[5mC]*eT*eT) [compound 547302]
[12]
  % inhibition: 58%

## 547764 (antisense e[5mC]*e[5mC]*eA*e[5mC]*e[5mC]*dT*dT*d[5mC]*dT*dT*dA*d[5mC]*dA*dT*dA*eT*eG*e[5mC]*eT*eA) [compound 547764]
[4]
  % inhibition: 24%

## 546258 (eA*e[5mC]*eA*eG*e[5mC]*dG*dA*dA*dT*d[5mC]*dA*dT*d[5mC]*dT*dT*eT*eG*eT*eG*e[5mC]; antisense) [compound 546258]
[9]
  % inhibition: 74%

## 547312 (antisense eA*eT*eG*eT*eA*d[5mC]*dT*dT*dT*dT*dG*dG*d[5mC]*dA*dG*eG*eG*eT*eT*e[5mC]) [compound 547312]
[12]
  % inhibition: 46%

## 547069 (eG*e[5mC]*e[5mC]*e[5mC]*eT*d[5mC]*d[5mC]*dG*dA*dG*d[5mC]*dT*dT*dT*dG*eG*e[5mC]*eA*eA*e[5mC]; antisense) [compound 547069]
[4]
  % inhibition: 35%

## 547583 (e[5mC]*eA*e[5mC]*eT*eG*dT*d[5mC]*d[5mC]*dT*dA*dT*dA*dT*d[5mC]*dA*e[5mC]*eT*eG*eT*e[5mC]; antisense) [compound 547583]
[2]
  % inhibition: 80%

## 547463 (antisense eT*eA*eG*eG*e[5mC]*dA*dT*dA*dT*dT*dG*dG*dT*dT*dT*eT*eT*eG*eG*eA) [compound 547463]
[7]
  % inhibition: 74%
[8]
  % inhibition: 84%

## 546450 (eG*eT*eG*eG*e[5mC]*d[5mC]*d[5mC]*dT*d[5mC]*dT*dT*dA*dA*dG*dT*e[5mC]*eA*e[5mC]*e[5mC]*eA; antisense) [compound 546450]
[5]
  % inhibition: 73%

## 547671 (e[5mC]*eT*eA*e[5mC]*eA*dA*d[5mC]*dT*dA*dT*dA*dA*d[5mC]*dA*dG*eT*eA*eT*e[5mC]*eA; antisense) [compound 547671]
Human PKK mRNA, HepaRG cells, 5-10-5 motif oligonucleotides targeting SEQ ID NO: 1 and 10
  % inhibition: 0%

## 546308 (antisense eA*e[5mC]*eT*eT*eT*dA*dT*dA*dG*dT*dT*dT*dT*dG*dG*eT*eG*eA*eA*eT) [compound 546308]
[7]
  % inhibition: 57%
[8]
  % inhibition: 43%

## 547444 (antisense e[5mC]*eT*eA*eT*eA*dG*dA*dT*dG*d[5mC]*dG*d[5mC]*d[5mC]*dA*dA*eA*e[5mC]*eA*eT*e[5mC]) [compound 547444]
[9]
  % inhibition: 71%

## 546309 (antisense e[5mC]*e[5mC]*e[5mC]*eT*eT*d[5mC]*dT*dG*dA*dG*dA*d[5mC]*dT*dT*dT*eA*eT*eA*eG*eT) [compound 546309]
[7]
  % inhibition: 88%
[8]
  % inhibition: 81%

## 547549 (antisense e[5mC]*e[5mC]*e[5mC]*eA*eT*dG*d[5mC]*dA*dT*dA*d[5mC]*dT*d[5mC]*dG*d[5mC]*e[5mC]*eT*eT*eT*eG) [compound 547549]
[5]
  % inhibition: 36%

## 546318 (antisense eA*eT*eT*e[5mC]*eA*dA*dA*dG*dG*dA*dG*d[5mC]*d[5mC]*dT*dG*eG*eA*eG*eT*eT) [compound 546318]
[7]
  % inhibition: 47%
[8]
  % inhibition: 46%

## 546137 (eA*eT*eT*eG*e[5mC]*dT*dT*d[5mC]*dT*dT*dG*dG*dA*dG*dG*eT*eG*eA*eG*eT; antisense) [compound 546137]
[12]
  % inhibition: 76%

## 546379 (antisense e[5mC]*eT*e[5mC]*e[5mC]*eA*dT*dG*d[5mC]*dT*dT*dT*dG*d[5mC]*dA*dG*eA*eT*eG*eA*eG) [compound 546379]
[11]
  % inhibition: 69%

## 547608 (antisense eT*eA*eT*eA*eA*d[5mC]*dA*dA*dT*dA*dT*d[5mC]*dA*d[5mC]*dT*eG*eT*eA*e[5mC]*e[5mC]) [compound 547608]
Human PKK mRNA in HepaRG cells, 5-10-5 gapmers, Table 14
  % inhibition: 35%

## 547742 (eA*eT*e[5mC]*eG*eG*dT*dG*dG*dT*dG*dG*dG*dA*dT*dT*eG*eG*eT*e[5mC]*eG; antisense) [compound 547742]
[4]
  % inhibition: 57%
